Reference: patent US20120213827A1, “PROCESS FOR CONTROLLED CRYSTALLIZATION OF AN ACTIVE PHARMACEUTICAL INGREDIENT FROM SUPERCOOLED LIQUID STATE BY HOT MELT EXTRUSION” (priority 2011, published 2012)

Assay: Particle size analysis of dalcetrapib crystals (Malvern MasterSizer 2000, laser diffraction)
Format: physicochemical
Details: dispersant 0.1N HCl, sonicated 10 minutes
Procedure: The particle size distribution of dalcetrapib crystals from the bulk API and in the matrix of a hot-melt extruded composition produced according to Example 1 was determined according to the following method:
(§1) A Malvern MasterSizer 2000 was used for particle size measurement. The Fraunhofer optical model employed for analysis. The sample handling unit was a Hydro 2000S sonicator: Elma Model 9331. Sample measurement time was 20,000 snaps. The sample background time was 20,000 snaps. The dispersant media was 0.1N HCl, and the pump/stir speed was 2000 RPM.
Sample preparation was as follows: About 10-15 mg of the sample was weighed in 20 mL scintillation vial and 10 mL of de-ionized 0.1N HCl was added. The sample was vortexed for 15 seconds and then sonicated for 10 minutes @ 100% power.
The particle size distribution of dalcetrapib crystals in the matrices of hot-melt extruded compositions produced according to Example 5 was determined according to the following method:
as §1, with “MasterSizer®” for “MasterSizer”, “Fraunhofer®” for “Fraunhofer”, “RPM” for “RPM.”
Sample preparation was as follows: About 10-15 mg of the sample was weighed in a 20 mL scintillation vial and 10 mL of de-ionized 0.1N HCl was added. The sample was vortexed for 15 seconds and then sonicated for 10 minutes at 100% power.

- mean particle diameter D(0.1): 1.493 μm
- mean particle diameter D(0.5): 12.317 μm
- mean particle diameter D(0.9): 28.828 μm
SMILES: CCC(CC)CC1(C(=O)Nc2ccccc2SC(=O)C(C)C)CCCCC1 [bulk dalcetrapib, dalcetrapib]
